In patent publication US9526680B2, “Method for searching for malodor control agent, malodor control agent, and malodor control method” (Kao Corporation, priority 2010, dated 2016):

What was measured:
OR51L1 = target: T1, OR51L1 (Homo sapiens, UniProt Q8NGJ5); assay: Luciferase reporter gene assay, OR51L1 expressed in HEK293 cells; format: cell-based; conditions: for Inhibition ratio of OR51L1 response: response to hexanoic acid, test substance added together with hexanoic acid, HEK293
T1 construct: expressed in transfected cells; host or cells: HEK293
T1 sequence (Q8NGJ5 1-315): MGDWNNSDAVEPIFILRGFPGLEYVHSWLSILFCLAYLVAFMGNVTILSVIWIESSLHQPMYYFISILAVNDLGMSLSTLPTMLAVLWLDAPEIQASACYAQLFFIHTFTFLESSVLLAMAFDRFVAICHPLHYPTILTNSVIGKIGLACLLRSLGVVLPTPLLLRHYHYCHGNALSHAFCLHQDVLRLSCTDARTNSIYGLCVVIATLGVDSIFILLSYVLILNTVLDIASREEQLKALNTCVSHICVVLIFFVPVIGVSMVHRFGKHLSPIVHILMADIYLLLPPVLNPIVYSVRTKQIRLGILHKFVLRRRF
Procedure: (§1) Cloning of human olfactory receptors was performed based on the sequence information registered in GenBank, through PCR with human genomic DNA female (G1521: Promega) as a template. Each of the genes amplified through PCR was inserted into a pENTR vector (Invitrogen) according to an instruction manual. Then, the gene-inserted vector was digested with NotI and AscI, and the obtained fragments were inserted into NotI and AscI sites located downstream of the Flag-Rho tag sequence in the pME18S vector.
(§2) Each of the 350 types of human olfactory receptors was expressed in HEK293 cells. A reaction solution having a composition shown in Table 2 was prepared on a clean bench, and left to stand for 15 minutes. The solution was dispensed to each well of a 96-well plate (BD). Subsequently, […] cells (100 μL, 3×10^5 cells/cm^2) were seeded in each well and cultured for 24 hours in an incubator at 37° C. and under 5% CO2 conditions.
(§3) The olfactory receptor expressed in HEK293 cell was conjugated with cell-intrinsic Gas to activate adenylate cyclase, and thereby the level of intracellular cAMP was increased. For the measurement of the response to odor in this study, the luciferase reporter gene assay was used, in which an increase in the amount of intracellular cAMP was monitored by using the emission value originating from firefly luciferase gene (fluc2P-CRE-hygro) as an indicator. Furthermore, a gene product obtained by fusing renilla luciferase gene in the downstream of CMV promoter (hRluc-CMV) was simultaneously introduced, and this was used as an internal standard for correcting an error in the transgenesis efficiency or the number of cells. The medium was removed from the culture prepared in the above-described section 3) by using a Pipetman, and 75 μl of a solution containing an odor substance (1 mM hexanoic acid or 300 μM nonanoic acid) prepared in CD293 medium (Invitrogen) was added thereto. The cells were cultured for 4 hours in a CO2 incubator, and the luciferase gene was sufficiently expressed in the cells. For the measurement of luciferase activity, the measurement was carried out by using a Dual-Glo™ luciferase assay system (Promega) according to the operation manual of the product. A value calculated by dividing the emission value, derived from a firefly luciferase induced by the stimulation with an odor substance, by the emission value in cells that were not-stimulated with an odor substance, was designated as a fold increase, and used as an index of response intensity.
(§4) OR2W1, OR10A6, OR51E1, OR51I2, and OR51L1 were respectively expressed in HEK293 cells by the same method as that used in Example 1, and a luciferase assay was carried out. In the luciferase assay, hexanoic acid was used as the odorous substance, and test substances were added together with hexanoic acid. The response of the olfactory receptors to hexanoic acid was measured, and a decrease in the receptor response to the addition of test substances was evaluated.
(§5) The inhibition ratios of the receptor response to test substances were calculated as follows. The emission value (Y) obtained from the cells in which the same receptors were introduced but no odor stimulation was conducted, was subtracted from the emission value derived from firefly luciferase (X) induced by odor stimulation with hexanoic acid alone. Similarly, the emission value (Y) obtained from the cells in which no odor stimulation was conducted, was subtracted from the emission value (Z) caused by stimulation with a mixture of hexanoic acid and a test substance. By the following calculation formula, the inhibitory activity of the test substance to receptor response was calculated based on the increment of the emission value (X−Y) caused by stimulation of hexanoic acid alone. Multiple independent experiments were performed in duplicate, and the average of each experiment was obtained. Inhibition ratio (%)={1−(Z−Y)/(X−Y)}×100 […]

OR2W1 = target: T2, OR2W1 (Homo sapiens, UniProt Q9Y3N9); assay: Luciferase reporter gene assay, OR2W1 expressed in HEK293 cells; format: cell-based; conditions: for Inhibition ratio of OR2W1 response: response to hexanoic acid, test substance added together with hexanoic acid, HEK293
T2 construct: expressed in transfected cells; host or cells: HEK293
T2 sequence (Q9Y3N9 1-320): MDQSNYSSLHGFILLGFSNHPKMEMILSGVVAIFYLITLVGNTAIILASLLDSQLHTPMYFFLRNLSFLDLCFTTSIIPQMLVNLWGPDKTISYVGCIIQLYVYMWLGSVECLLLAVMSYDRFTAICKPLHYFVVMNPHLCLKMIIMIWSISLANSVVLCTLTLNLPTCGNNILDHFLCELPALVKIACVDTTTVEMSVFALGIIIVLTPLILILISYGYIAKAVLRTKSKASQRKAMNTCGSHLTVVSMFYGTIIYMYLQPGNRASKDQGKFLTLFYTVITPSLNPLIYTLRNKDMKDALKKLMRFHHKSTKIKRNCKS
Procedure: as §1, §2, §3, §4, §5

[1] = Sensory evaluation test of hexanoic acid odor inhibition; format: in vivo; conditions: for Intensity of odor: hexanoic acid odor, malodor alone rated as 5, 0 to 10 points, test substance diluted 100 times with propylene glycol, three panelists; for Inhibition of hexanoic acid odor (in words): sensory test, test substance diluted 100 times with propylene glycol (FIG. 5, Table 4)
Procedure: Cotton balls were introduced into a glass bottle (Hakuyo Glass Co., Ltd. No. 11, capacity 110 ml), and hexanoic acid diluted 100 times with propylene glycol, nonanoic acid diluted 10 times with propylene glycol, or isovaleric acid diluted 1000 times with propylene glycol, as a malodor, and a test substance were added dropwise in an amount of […] to the cotton balls. The glass bottle was left to stand overnight at room temperature, and the odor molecules were sufficiently volatilized in the glass bottle. A sensory evaluation test was carried out by a panel of three panelists (5 panelists for isovaleric acid), and while the intensity of odor in the case of adding dropwise the malodor alone was rated as 5, the intensity of the malodor in the case of incorporating a test substance was evaluated on the basis of a system of 20 grades from 0 point to 10 points (0.5 points per grade).
Regarding the test substance, florhydral (Givaudan SA), bourgeonal (Givaudan SA), hydroxycitronellal (Givaudan SA, International Flavors & Fragrances, Inc., and the like), 4-isopropylcyclohexanecarbaldehyde (synthesized according to a method described in JP-A-2-188549), 4-(2-methoxyphenyl)-2-methyl-2-butanol (JP-A-9-111281), florosa (Givaudan SA), isocyclocitral (Givaudan SA, International Flavors & Fragrances, Inc., and the like), tripral (International Flavors & Fragrances, Inc.), and Pollenal II (Kao Corp.), which had been diluted 100 times with propylene glycol, were used for hexanoic acid; florhydral that had been diluted 10 times with propylene glycol was used for nonanoic acid; and florhydral that had been diluted 1000 times with propylene glycol was used for isovaleric acid.

[2] = 1 mM hexanoic acid, test substance 3, 10, 30, 100, 300 μM (FIG. 4)

Row | Compound | Inhibition ratio of OR51L1 response (OR51L1) | Inhibition ratio of OR2W1 response (OR2W1) | Intensity of odor [1] | Inhibition of hexanoic acid odor (in words) [1] | Inhibition of OR51L1 response to hexanoic acid (in words) (OR51L1; [2]) | Inhibition of OR2W1 response to hexanoic acid (in words) (OR2W1; [2])
1 | 2,4,6-trimethyl-3-cyclohexene-1-carboxyaldehyde, 3,5,6-trimethyl-3-cyclohexene-1-carboxyaldehyde [Isocyclocitral] | 1 (Inhibition ratio: 50% or higher) | 1 (Inhibition ratio: 50% or higher) | 0.67 | inhibit the hexanoic acid odor | – | –
2 | CC(C)c1cccc(C(C)CC=O)c1 (stereo not shown) [Florhydral, 3-(3-isopropylphenyl)-butyraldehyde] | 1 (Inhibition ratio: 50% or higher) | 1 (Inhibition ratio: 50% or higher) | 1.25 | markedly inhibited | in a concentration-dependent manner | in a concentration-dependent manner
